From PMC9090415, “Discovery of small molecule inhibitors of Plasmodium falciparum apicoplast DNA polymerase” (Journal of Enzyme Inhibition and Medicinal Chemistry, 2022) come the findings set out here.

Each structure is given as a SMILES string. pIC50: −log10 of the molar value.

The target in the assay is P. falciparum apicoplast DNA polymerase (Pf-apPOL) (Plasmodium falciparum, UniProt Q8ILY1). Kind of assay: Fluorescence-based high-throughput DNA polymerase assay (molecular beacon), primary screen and dose-response.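 As to % inhibition ApPOL 90': test concentration in µM.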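 As to % inhibition apPOL 180': test concentration in µM.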 Format: biochemical. The essentials: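 Single-point screening used 10 µM compound with 20 nM polymerase, 20 nM hairpin substrate and 6 µM dNTPs for 90 min at 25 °C. Confirmatory titrations (2.5–80 µM) followed fluorescence at three times, and IC50 was derived from a fit including a cooperativity term n.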

Where [1] appears, read: primary screen value of the 186 hits; unit not given; 90 min, 10 µM.
[2] abbreviates: supplemental file 2, sheet IC50 nontoxic compounds; Pf-apPOL.

P. falciparum apicoplast DNA polymerase (Pf-apPOL), sequence (Q8ILY1 entry or part of it): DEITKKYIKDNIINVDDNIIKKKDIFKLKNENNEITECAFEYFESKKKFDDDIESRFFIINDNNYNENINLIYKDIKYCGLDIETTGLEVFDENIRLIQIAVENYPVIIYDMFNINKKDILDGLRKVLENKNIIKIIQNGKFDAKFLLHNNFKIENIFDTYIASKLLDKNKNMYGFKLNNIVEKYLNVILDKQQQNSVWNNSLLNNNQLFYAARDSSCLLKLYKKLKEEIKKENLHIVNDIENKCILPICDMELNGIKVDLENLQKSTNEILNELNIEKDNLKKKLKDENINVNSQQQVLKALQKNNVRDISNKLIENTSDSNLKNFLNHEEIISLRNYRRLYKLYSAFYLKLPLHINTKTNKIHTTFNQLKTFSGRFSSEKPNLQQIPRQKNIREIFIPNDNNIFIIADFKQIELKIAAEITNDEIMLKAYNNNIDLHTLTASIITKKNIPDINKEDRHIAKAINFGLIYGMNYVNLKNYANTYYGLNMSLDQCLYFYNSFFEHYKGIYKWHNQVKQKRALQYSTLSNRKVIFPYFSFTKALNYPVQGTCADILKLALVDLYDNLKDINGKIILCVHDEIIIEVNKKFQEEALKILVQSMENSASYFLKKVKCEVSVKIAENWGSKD

As for `O=C(Cn1ccc2c(=O)[nH]ccc21)Nc1cccc(Cl)c1` [Molecule 23, O=C(Cn1ccc2c1cc[nH]c2=O)Nc1cccc(c1)Cl], the “% inhibition Apo pol 10'” value is, setting by setting: (DRC-1; 10'; concentration 2.5) 1.228%; (DRC-1; 10'; concentration 5) 14.8384%; (DRC-1; 10'; concentration 10) 62.4441%; (DRC-1; 10'; concentration 20) 81.0439%; (DRC-1; 10'; concentration 40) 80.7703%; (DRC-1; 10'; concentration 80) 68.5193%. For the same molecule, the “% inhibition Apol 90'” value (DRC-1; 90'; concentration 2.5) is given as -3.118%; the “% inhibition Apol 90'” value (DRC-1; 90'; concentration 5) is given as 4.6922%; the “% inhibition Apol 90'” value (DRC-1; 90'; concentration 10) is given as 48.8063%; the “% inhibition Apol 90'” value (DRC-1; 90'; concentration 20) was 74.6886%; the “% inhibition Apol 90'” value (DRC-1; 90'; concentration 40) was found to be 82.985%; the “% inhibition Apol 90'” value (DRC-1; 90'; concentration 80) is 79.3379%. For the same molecule, the “% inhibition apPOL 180'” value is, setting by setting: (DRC-1; 180'; concentration 2.5) -7.139%; (DRC-1; 180'; concentration 5) -3.837%; (DRC-1; 180'; concentration 10) 31.8886%; (DRC-1; 180'; concentration 20) 62.9592%; (DRC-1; 180'; concentration 40) 80.4785%; (DRC-1; 180'; concentration 80) 82.7611%. Also, the “% inhibition apPOL 180'” value is 57% (DRC-2, 180', concentration 10 (unit not given)); 65% (DRC-2, 180', concentration 80 (unit not given)); -5% (DRC-2; 180'; concentration 2.5); 18% (DRC-2; 180'; concentration 5); 57% (DRC-2; 180'; concentration 10); 71% (DRC-2; 180'; concentration 20). The “% inhibition apPOL 180'” value by setting is: (DRC-2; 180'; concentration 40) 72%; (DRC-2; 180'; concentration 80) 65%. Besides, the “% inhibition Apol 40'” value (DRC-2, 40', concentration 10 (unit not given)) is 63%; the “% inhibition Apol 40'” value (DRC-2, 40', concentration 20 (unit not given)) turned out to be 65%; the “% inhibition Apol 40'” value (DRC-2; 40'; concentration 2.5) amounted to 6%; the “% inhibition Apol 40'” value (DRC-2; 40'; concentration 5) came out at 35%; the “% inhibition Apol 40'” value (DRC-2; 40'; concentration 10) is given as 63%; the “% inhibition Apol 40'” value (DRC-2; 40'; concentration 20) came to 65%. Further, the “% inhibition Apol 40'” value (DRC-2; 40'; concentration 40) worked out at 60% and the “% inhibition Apol 40'” value (DRC-2; 40'; concentration 80) came to 49%. The “% inhibition ApPOL 90'” value is, setting by setting: (DRC-2, 90', concentration 10 (unit not given)) 63%; (DRC-2, 90', concentration 80 (unit not given)) 57%; (DRC-2; 90'; concentration 2.5) 3%; (DRC-2; 90'; concentration 5) 31%; (DRC-2; 90'; concentration 10) 63%; (DRC-2; 90'; concentration 20) 69%. For the same molecule, the “% inhibition ApPOL 90'” value (DRC-2; 90'; concentration 40) is recorded as 67% and the “% inhibition ApPOL 90'” value (DRC-2; 90'; concentration 80) turned out to be 57%. Besides, the “% inhibition Apo pol 5'” value by setting is: (DRC-2; 5'; concentration 2.5) 7%; (DRC-2; 5'; concentration 5) 28%; (DRC-2; 5'; concentration 10) 46%; (DRC-2; 5'; concentration 20) 43%; (DRC-2; 5'; concentration 40) 34%; (DRC-2; 5'; concentration 80) 19%. The “DNA Pol” value under setting [1] turned out to be 79 and the “DNA Pol” value (primary screen value, head "DNA Pol", unit not given; 90 min, 10 µM) is reported as 79.

What is called pIC50 is the IC50 on a negative log10 scale, so that one unit is a factor of ten. Take `O=C(Cn1ccc2c(=O)[nH]ccc21)Nc1cccc(Cl)c1` [Molecule 23]: the pIC50 under setting [2] is 5.04.

Take `CCCCCc1c2c(cc(O)c1C(=O)O)OC(=O)c1c(cc(OC)cc1C(=O)CCCC)O2` [Molecule 24, CCCCCc1c2Oc3cc(OC)cc(c3C(=O)Oc2cc(c1C(=O)O)O)C(=O)CCCC]: the “% inhibition Apo pol 10'” value (DRC-1; concentration 2.5; 10') was 18.1675%; the “% inhibition Apo pol 10'” value (DRC-1; concentration 5; 10') was determined as 31.5197%; the “% inhibition Apo pol 10'” value (DRC-1; concentration 10; 10') is recorded as 51.0452%; the “% inhibition Apo pol 10'” value (DRC-1; concentration 20; 10') was 86.3655%; the “% inhibition Apo pol 10'” value (DRC-1; concentration 40; 10') was determined as 94.8127%; the “% inhibition Apo pol 10'” value (DRC-1; concentration 80 (unit not given); 10') was found to be 96.1248%. The “% inhibition Apol 90'” value reads like this: (DRC-1; concentration 2.5; 90') 17.5572%; (DRC-1; concentration 5; 90') 20.3733%; (DRC-1; concentration 10; 90') 38.7515%; (DRC-1; concentration 20; 90') 81.3702%; (DRC-1; concentration 40; 90') 91.3399%; (DRC-1; concentration 80; 90') 93.64%. Also, the “% inhibition apPOL 180'” value (DRC-1; concentration 2.5; 180') came to 13.8829%; the “% inhibition apPOL 180'” value (DRC-1; concentration 5; 180') is listed as 11.4977%; the “% inhibition apPOL 180'” value (DRC-1; concentration 10; 180') came out at 28.4609%; the “% inhibition apPOL 180'” value (DRC-1; concentration 20; 180') is given as 74.6955%; the “% inhibition apPOL 180'” value (DRC-1; concentration 40; 180') is given as 88.9652%; the “% inhibition apPOL 180'” value (DRC-1; concentration 80; 180') is on record as 92.215%. The “% inhibition apPOL 180'” value by setting is: (DRC-2; 180'; concentration 5) 11%; (DRC-2; 180'; concentration 10) 43%; (DRC-2; concentration 2.5; 180') 6%; (DRC-2; concentration 5; 180') 11%; (DRC-2; concentration 10; 180') 43%; (DRC-2; concentration 20; 180') 32%. Moreover, the “% inhibition apPOL 180'” value was determined as 62% (DRC-2; concentration 40; 180') and 81% (DRC-2; concentration 80; 180'). In addition, the “% inhibition Apo pol 5'” value is, setting by setting: (DRC-2; 5'; concentration 2.5) 11%; (DRC-2; concentration 2.5; 5') 11%; (DRC-2; concentration 5; 5') 18%; (DRC-2; concentration 10; 5') 42%; (DRC-2; concentration 20; 5') 35%; (DRC-2; concentration 40; 5') 49%. In addition, where the note is “DRC-2; concentration 80; 5'”, the “% inhibition Apo pol 5'” value amounted to 56%. Further, the “% inhibition Apol 40'” value is given as 51% (DRC-2; 40'; concentration 10); 43% (DRC-2; 40'; concentration 20); 14% (DRC-2; concentration 2.5; 40'); 20% (DRC-2; concentration 5; 40'); 51% (DRC-2; concentration 10; 40'); 43% (DRC-2; concentration 20; 40'). In addition, the “% inhibition Apol 40'” value runs as follows: (DRC-2; concentration 40; 40') 65%; (DRC-2; concentration 80; 40') 76%. In addition, the “% inhibition ApPOL 90'” value runs as follows: (DRC-2; 90'; concentration 2.5) 11%; (DRC-2; 90'; concentration 10) 51%; (DRC-2; concentration 2.5; 90') 11%; (DRC-2; concentration 5; 90') 19%; (DRC-2; concentration 10; 90') 51%; (DRC-2; concentration 20; 90') 41%. For the same molecule, the “% inhibition ApPOL 90'” value amounted to 66% (DRC-2; concentration 40; 90') and 80% (DRC-2; concentration 80; 90'). Moreover, the “DNA Pol” value is, setting by setting: under setting [1], 33; (primary screen value; head prints only 'DNA Pol'; 90 min, 10 µM) 33.

In the case of `CCCCCc1c2c(cc(O)c1C(=O)O)OC(=O)c1c(cc(OC)cc1C(=O)CCCC)O2` [Molecule 24], under setting [2], the pIC50 was 5.03.

With `O=C(NNC(=O)c1ccc(Cl)cc1)C(=O)NNC(=O)c1ccc(Cl)cc1` [Molecule 25], the pIC50 under setting [2] was 5.01.

Take `COc1ccc(C(=O)N2CCc3c(nc4cc(-c5ccccc5Cl)[nH]n4c3=O)C2)cn1` [Molecule 26]: the pIC50 under setting [2] is 5.02.
